In patent US20240368151A1, “NOVEL ERGOLINES AND METHODS OF TREATING MOOD DISORDERS” (priority 2021, published 2024):

What was measured:
[1] = molecular target: T1, 5-HT2A receptor (Homo sapiens (Human), UniProt P28223); type: cell-based; details: Ca^2+ flux, HEK293
Protocol: (§1) Functional Assays at 5-HT2A, 5-HT2B, and 5-HT1A. Agonist activity at 5-HT2A, 5-HT2B, and 5-HT1A receptors was determined using a FLIPR Ca^2+ flux assay at WuXi AppTec (Hong Kong) Limited according to their standard protocols. Briefly, stably transfected cells expressing the receptor of interest (HEK293 for 5-HT2A and 5-HT2B; CHO cells for 5-HT1A) were grown and plated in a 384 well plate and incubated at 37° C. and 5% CO2 overnight. A solution of 250 mM probenecid in 1 mL FLIPR assay buffer was prepared fresh. This was combined with a fluorescent dye (Fluo-4 Direct™) to make a final assay concentration of 2.5 mM. […] The fluorescent dye was then added to the assay plate along with assay buffer to a final volume of 40 μL. The cell plate was incubated for 50 min at 37° C. and 5% CO2 and placed into the FLIPR Tetra along with the compound plate. 10p L of references and compounds were then transferred from the compound plate into the cell plate and the fluorescent signal was read.

[2] = molecular target: 5-HT2B receptor (Homo sapiens (Human), UniProt P41595); test: FLIPR Ca^2+ flux agonist assay at 5-HT2B; type: cell-based; details: HEK293
Protocol: as §1

[3] = molecular target: human 5-HT2C receptor (Homo sapiens (Human), UniProt P28335); type: cell-based; details: Ca^2+ flux
[4] = molecular target: 5-HT1A receptor (Homo sapiens (Human), UniProt P08908); test: FLIPR Ca^2+ flux agonist assay at 5-HT1A; type: cell-based; details: CHO cells
Protocol: as §1

[5] = molecular target: T1, 5-HT2A receptor; type: cell-based; details: beta-arrestin recruitment
Protocol: The degree of arrestin bias varied substantially across the other compounds tested as well.
Arrestin Functional Assay at 5-HT2A. Recruitment of beta-arrestin was determined using a PathHunter assay at Eurofins DiscoverX (Fremont, CA) according to their standard protocols. PathHunter GPCR beta-arrestin assays take advantage of DiscoverX's proprietary Enzyme Fragment Complementation technology. The GPCR is fused in frame with a small enzyme donor fragment ProLink™ (PK) and co-expressed in cells stably expressing a fusion protein of beta-arrestin and the larger, N-terminal deletion mutant of beta-galactosidase. Activation of the GPCR (5-HT2A receptor in this case) stimulates binding of beta-arrestin to the PK-tagged GPCR and forces complementation of the two enzyme fragments, resulting in the formation of an active beta-galactosidase enzyme. This interaction leads to an increase in enzyme activity that can be measured using chemiluminescent PathHunter Detection Reagents. Briefly, PathHunter cells expressing 5-HT2A receptors were seeded in a volume of 20 μL into 384-well plates and incubated at 37° C. for the appropriate time prior to testing. […] Plates were then imaged on a microplate reader and the agonist activity was calculated using the following formula: % Activity=100%×(mean RLU of test sample−mean RLU of vehicle control)/(mean MAX control ligand−mean RLU of vehicle control), where RLU=relative light units.

[6] = Metabolic stability in human liver microsomes (HLM); type: in vitro ADME; details: both sexes, human, pooled human liver microsomes, pH 7.4, NADPH
From the text: HLM Stability. Pooled HLM from adult male and female donors (Corning 452117) were used.

[7] = Metabolic stability in mouse liver microsomes (MLM); type: in vitro ADME; details: mouse, pooled mouse liver microsomes, pH 7.4, MLM (CD-1), NADPH
From the text: MLM Stability Pooled MLM from CD-1 mice (BIOIVT M00501) were used.

[8] = Metabolic stability in rat liver microsomes (RLM); type: in vitro ADME; details: both sexes, rat, pooled rat liver microsomes, pH 7.4, NADPH
[9] = system: C57BL/6 mice; test: Mouse head twitch response (HTR) assay; type: in vivo; details: mouse HTR, SC; for # HTR at Most Efficacious Dose / Emax (95% CI): 20 min observation; for Emax (95% CI): curve fit
Protocol: Agonists of the 5-HT2A receptor are well known to induce this effect in rodents and the potency of this HTR is correlated with hallucinogenic potency in humans.
Animals. Adult male C57BL/6 mice, aged 6-8 weeks (body weight 20-25 g) were used in this experiment. Animals were housed under controlled temperatures and 12-hour light/dark cycles (lights on between 07:00-19:00 h), with ad libitum food and water. This study was carried out in strict accordance with the requirements of the Committee for the Purpose of Control and Supervision of Experiments on Animals (CPCSEA), India. All efforts were made to minimize suffering.
Drugs and Drug Administration. Compound 1 was synthesized as described above. It was administered subcutaneously (SC) dissolved in saline vehicle at a volume of 10 mL/kg. Five doses were tested, with n=6 animals/group. Doses were calculated on the basis of the freebase.
Procedure. Mice were administered one dose of the drug and immediately placed into a small open field for behavioral observation. Animals were observed continuously for 20 mins and the number of head twitches (HTs) were counted by an observer blind to the treatment condition.
Statistical Analysis. The data points shown are the mean±standard error of the mean (SEM). Analysis was performed using GraphPad Prism 6. Curves were fit using a non-linear gaussian distribution to calculate ED50 and Emax values.
Additional disclosed compounds were tested in the mouse head twitch response (HTR) assay according to the procedure described in Example 34. […] Lastly, compounds with much larger benzyl and phenethyl substituents on the amine nitrogen (e.g., 10 and 11) were low efficacy in this assay, consistent with their lower maximal efficacy in the arrestin functional assay (see Example 32).

Chain of human 5-HT2C receptor (P28335 33-458 limits assumed): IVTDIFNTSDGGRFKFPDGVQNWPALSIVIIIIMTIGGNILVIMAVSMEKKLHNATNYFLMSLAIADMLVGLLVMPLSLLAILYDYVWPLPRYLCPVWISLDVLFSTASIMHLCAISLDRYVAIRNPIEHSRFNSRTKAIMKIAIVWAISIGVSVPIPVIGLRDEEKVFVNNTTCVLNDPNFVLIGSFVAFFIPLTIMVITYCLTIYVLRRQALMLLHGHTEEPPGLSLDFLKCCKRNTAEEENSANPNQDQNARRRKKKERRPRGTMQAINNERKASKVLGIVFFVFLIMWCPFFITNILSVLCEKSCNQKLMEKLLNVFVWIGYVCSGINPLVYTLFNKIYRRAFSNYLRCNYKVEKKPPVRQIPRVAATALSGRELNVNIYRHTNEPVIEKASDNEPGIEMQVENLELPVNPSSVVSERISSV
Chain of 5-HT2B receptor (P41595 whole entry, looked up): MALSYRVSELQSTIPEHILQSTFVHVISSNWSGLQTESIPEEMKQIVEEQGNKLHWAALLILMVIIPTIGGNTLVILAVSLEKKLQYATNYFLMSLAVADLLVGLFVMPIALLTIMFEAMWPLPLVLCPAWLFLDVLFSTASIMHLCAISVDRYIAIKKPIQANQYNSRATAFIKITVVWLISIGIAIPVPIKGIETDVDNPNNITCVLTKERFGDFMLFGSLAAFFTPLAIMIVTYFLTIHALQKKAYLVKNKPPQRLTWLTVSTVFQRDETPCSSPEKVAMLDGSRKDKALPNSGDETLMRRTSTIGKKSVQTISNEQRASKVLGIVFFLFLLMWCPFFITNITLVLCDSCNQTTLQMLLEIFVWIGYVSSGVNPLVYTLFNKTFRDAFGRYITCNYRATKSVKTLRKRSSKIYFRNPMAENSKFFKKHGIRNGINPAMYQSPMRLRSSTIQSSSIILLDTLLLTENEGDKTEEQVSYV

SMILES | 5-HT2A % Act @ Max Dose [1] [%] | 5-HT2B % Act @ Max Dose [2] [%] | 5-HT2C % Act @ Max Dose [3] [%] | 5-HT1A % Act @ Max Dose [4] [%] | 5-HT2A Arrestin % Act @ Max Dose [5] [%] | half-life at 1 μM [6] [min] | half-life at 1 μM [7] [min] | half-life at 1 μM [8] [min] | agonist type in the 5-HT2A arrestin recruitment assay, in words [5] | Most Efficacious Dose [9] | # HTR at Most Efficacious Dose [9] | Emax (95% CI) [9]
C=CCN1C[C@@H](C(=O)N[C@H](C)CC)C=C2c3cccc4[nH]cc(c34)C[C@H]21 [Compound 8a, (6aR,9S)-7-allyl-N-((R)-sec-butyl)-4,6,6a,7,8,9-hexahydroindolo[4,3-fg]quinoline-9-carboxamide] | 87.45 | 35.71 | 13.314 | 90.34 | 81.117 | 3.4 | 0.8 | 1.7 |  |  |  | 
CCCN1C[C@@H](C(=O)N[C@H](C)CC)C=C2c3cccc4[nH]cc(c34)C[C@H]21 [Compound 3a, (6aR,9S)-N-((R)-sec-butyl)-7-propyl-4,6,6a,7,8,9-hexahydroindolo[4,3-fg]quinoline-9-carboxamide] | 92.04 | 52.81 | 108.705 | 108.14 | 112.91 | 2.2 | 0.6 | 1.4 |  |  |  | 
CC[C@@H](C)NC(=O)[C@H]1C=C2c3cccc4[nH]cc(c34)C[C@H]2N(C)C1 [Int8a, (6aR,9S)-N-((R)-sec-butyl)-7-methyl-4,6,6a,7,8,9-hexahydroindolo[4,3-fg]quinoline-9-carboxamide] | 72.6 | 6.87 | 93.73 | 103.65 | 35.52 | 11.1 | 1.6 | 3.5 |  |  |  | 
CCC[C@@H](C)NC(=O)[C@H]1C=C2c3cccc4[nH]cc(c34)C[C@H]2N(C)C1 [Int17a, (6aR,9S)-7-methyl-N-((R)-pentan-2-yl)-4,6,6a,7,8,9-hexahydroindolo[4,3-fg]quinoline-9-carboxamide] | 63.31 | 5.63 | 112.06 | 88.52 | 43.729 | 4.58 | 1.58 | 1.96 |  |  |  | 
CCC(CC)NC(=O)[C@@H]1C=C2c3cccc4[nH]cc(c34)C[C@H]2N(C)C1 [Int14, (6aR,9R)-7-methyl-N-(pentan-3-yl)-4,6,6a,7,8,9-hexahydroindolo[4,3-fg]quinoline-9-carboxamide] | 93.33 | 9.84 | 99.149 | 102.46 | 44.377 | 17.6 | 6.07 | 38 | partial agonists | (1 mg/kg) | 10.5 | 21.63
CCC[C@@H](C)NC(=O)[C@@H]1C=C2c3cccc4[nH]cc(c34)C[C@H]2N(C)C1 [Int17, (6aR,9R)-7-methyl-N-((R)-pentan-2-yl)-4,6,6a,7,8,9-hexahydroindolo[4,3-fg]quinoline-9-carboxamide] | 91.47 | 25.49 | 102.19 | 113.04 | 38.809 | 15.9 | 8.25 | 27.9 | partial agonists | (0.32 mg/kg) |  | 4.96
C[C@H]1C[C@H](C)N1C(=O)[C@@H]1C=C2c3cccc4[nH]cc(c34)C[C@H]2N(C)C1 [Int11, ((2S,4S)-2,4-dimethylazetidin-1-yl)((6aR, 9R)-7-methyl-4,6,6a,7,8,9-hexahydroindolo[4,3-fg]quinolin-9-yl)methanone] | 110.03 | 38.15 |  | 89.9 | 49.269 | 25.7 | 13.9 | 54.9 | partial agonists | (0.1 mg/kg) | 10.667 | 10.93
C=CCN1C[C@H](C(=O)N[C@H](C)CC)C=C2c3cccc4[nH]cc(c34)C[C@H]21 [Compound 8, (6aR,9R)-7-allyl-N-((R)-sec-butyl)-4,6,6a,7,8,9-hexahydroindolo[4,3-fg]quinoline-9-carboxamide] | 99.25 | 91.56 | 108.26 | 116.41 | 112.42 | 7.9 | 3.7 | 7.7 | full agonists | (1 mg/kg) | 15.75 | 12.03
CCC(CC)NC(=O)[C@H]1C=C2c3cccc4[nH]cc(c34)C[C@H]2N(C)C1 [Int14a, (6aR,9S)-7-methyl-N-(pentan-3-yl)-4,6,6a,7,8,9-hexahydroindolo[4,3-fg]quinoline-9-carboxamide] | 32.98 | 1.86 | 119.28 | 70.27 | 44.321 | 3.35 | 1.7 | 1.8 |  |  |  | 
CCN(CC)C(=O)[C@H]1C=C2c3cccc4[nH]cc(c34)C[C@H]2N(CCCF)C1 [Compound 2a, (6aR,9S)-N,N-diethyl-7-(3-fluoropropyl)-4,6,6a,7,8,9-hexahydroindolo[4,3-fg]quinoline-9-carboxamide] | 90.29 | 40.13 | 118.85 | 96.77 | 83.328 | 17 | 1.78 | 9.67 |  |  |  | 
CC[C@@H](C)NC(=O)[C@H]1C=C2c3cccc4[nH]cc(c34)C[C@H]2N(CC)C1 [Compound 5a, (6aR,9S)-N-((R)-sec-butyl)-7-ethyl-4,6,6a,7,8,9-hexahydroindolo[4,3-fg]quinoline-9-carboxamide] | 89.59 | 43.7 | 99.4405 | 111.65 | 62.444 | 5.5 | 1.7 | 3.1 |  |  |  | 
